# Reference: patent publication US20230293611A1, “NATURAL PRODUCT EXTRACTS AND METHODS OF USE THEREOF” (THE ADORED BEAST APOTHECARY LTD., priority 2020, published 2023)
# Experiments:
# MDA-MB-231 cells = assay: MTS assay (Example 1); format: cell-based; details: Homo sapiens, positive control 50 μM, 24 h, mean±SEM, n=3, read-out: MDA-MB-231 cell viability
# Protocol: (§1) • (a) Solvent extraction: Four different solvents were used, namely, methanol, hexane:ethyl acetate (39:1), ethyl acetate, and water. Briefly, 2 g of the test material (MH/GL) were dissolved in 80 ml of appropriate solvents (methanol/hexane:ethyl acetate/ethyl acetate), sonicated twice for 20 min at room temperature (RT), and centrifuged at 3000 rpm for 10 min. The supernatant was collected and evaporated using a rotary evaporation system at 65° C. The concentrated extract was subjected to nitrogen evaporation to remove all the solvent, then dissolved in DMSO to a final concentration of 60 mg/ml. For water extraction, 2 g of the test material was dissolved in 80 ml water, sonicated twice for 20 min at RT, kept at RT for three days, vortexed, and centrifuged at 3000 rpm for 10 min. The supernatant was then freeze-dried into powder. The powder was dissolved in DMSO to a final concentration of 60 mg/ml. • (b) MTS assay: The potential inhibitory effects of MH and GL extracts on HepG2 and MDA-MB-231 cells were measured using MTS assay. Briefly, 6000 cells were seeded and treated with different concentrations (6.25, 12.5, 25, 50, 100, 150, and 300 μg/ml) of extracts for 24 h. Then, MTS/PMS reagent was added and absorbance was measured at 490 nm using a plate reader. Sorafenib (20 μM) and doxorubicin (50 μM) were used as positive controls for HepG2 and MDA-MB-231 cells, respectively. […]
# HepG2 cells = assay: MTS assay (Example 1); format: cell-based; details: Homo sapiens, positive control 20 μM, 24 h, mean±SEM, n=3, read-out: HepG2 cell viability
# Protocol: as §1
SMILES,viability at 50 µM (MDA-MB-231 cells),viability at 20 µM (HepG2 cells)
COc1cccc2c1C(=O)c1c(O)c3c(c(O)c1C2=O)C[C@@](O)(C(=O)CO)C[C@@H]3O[C@H]1C[C@H](N)[C@H](O)[C@H](C)O1 [doxorubicin],24.4 ± 5.1%,–
CNC(=O)c1cc(Oc2ccc(NC(=O)Nc3ccc(Cl)c(C(F)(F)F)c3)cc2)ccn1 [sorafenib],–,26 ± 3.7%
